From PubChem BioAssay (NCI)
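All cell lines were grown in 96-well plates and treated with compound for 48 hours. The concentration for 50% growth inhibition is given as GI50. The concentration for full growth arrest is given as TGI.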

Experiments:
Assay in all cases: NCI tumour cell line growth inhibition, 48 h
UO-31 renal = test system: UO-31 renal
COLO 205 colon = test system: COLO 205 colon
786-0 renal = test system: 786-0 renal
RPMI-8226 leukemia = test system: RPMI-8226 leukemia
RXF 393 renal = test system: RXF 393 renal
MOLT-4 leukemia = test system: MOLT-4 leukemia
OVCAR-3 ovarian = test system: OVCAR-3 ovarian
TK-10 renal = test system: TK-10 renal
A549 NSCLC = test system: A549 NSCLC

## O=C1c2ccccc2C(=O)c2c1c(NCCNCCO)c1cc[nH]c1c2NCCNCCO
UO-31 renal
  GI50: 62.9 µM
  TGI: > 100 µM
COLO 205 colon
  GI50: 2.48 µM
  TGI: > 33.3 µM
786-0 renal
  GI50: 3.87 µM
  TGI: > 36.7 µM
RPMI-8226 leukemia
  GI50: 13.9 µM
  TGI: 47.8 µM
RXF 393 renal
  GI50: 2.59 µM
  TGI: 13.2 µM
MOLT-4 leukemia
  GI50: 1.28 µM
OVCAR-3 ovarian
  GI50: 3.57 µM
  TGI: > 26.1 µM
TK-10 renal
  GI50: 6.04 µM
  TGI: 44.9 µM
A549 NSCLC
  GI50: 5.46 µM
  TGI: 27.2 µM

## Cc1occc1C(=S)Nc1ccc(Cl)c(C(=O)OCC2CC2)c1
UO-31 renal
  TGI: > 100 µM
COLO 205 colon
  TGI: > 100 µM
786-0 renal
  TGI: > 100 µM
RPMI-8226 leukemia
  TGI: 85.5 µM
MOLT-4 leukemia
  TGI: > 100 µM
OVCAR-3 ovarian
  TGI: > 100 µM
TK-10 renal
  TGI: > 100 µM
A549 NSCLC
  TGI: > 100 µM

## CCOc1ccc2c(-c3ccnc(Nc4cccc(C(F)(F)F)c4)n3)cnn2n1
UO-31 renal
  GI50: > 25 µM
  TGI: > 25 µM
COLO 205 colon
  GI50: > 25 µM
  TGI: > 25 µM
786-0 renal
  GI50: 7.3 µM
  TGI: > 19.6 µM
RPMI-8226 leukemia
  GI50: > 25 µM
  TGI: > 25 µM
RXF 393 renal
  GI50: 14.2 µM
  TGI: > 25 µM
MOLT-4 leukemia
  GI50: > 25 µM
  TGI: > 25 µM
OVCAR-3 ovarian
  GI50: 8.57 µM
  TGI: > 25 µM
TK-10 renal
  GI50: 9.72 µM
  TGI: > 23.8 µM
A549 NSCLC
  GI50: 4.4 µM
  TGI: 9.19 µM

## O=S(O)CCCCSSCCCCS(=O)(O)=S
UO-31 renal
  TGI: > 100 µM
COLO 205 colon
  TGI: > 100 µM
786-0 renal
  TGI: > 100 µM
RXF 393 renal
  TGI: > 100 µM
MOLT-4 leukemia
  TGI: > 100 µM
OVCAR-3 ovarian
  TGI: > 100 µM
TK-10 renal
  TGI: > 100 µM
A549 NSCLC
  TGI: > 100 µM

## CC[O+]=c1cccc2ssnc1-2
UO-31 renal
  TGI: > 100 µM
COLO 205 colon
  TGI: > 100 µM
786-0 renal
  TGI: > 100 µM
RXF 393 renal
  TGI: > 100 µM
MOLT-4 leukemia
  TGI: > 100 µM
OVCAR-3 ovarian
  TGI: 99.8 µM
TK-10 renal
  TGI: > 100 µM
A549 NSCLC
  TGI: > 100 µM

## Cc1ccc(S(=O)(=O)NC(C)C(=O)O)cc1 (stereo not drawn)
UO-31 renal
  TGI: > 100 µM
COLO 205 colon
  TGI: > 100 µM
786-0 renal
  TGI: > 100 µM
RPMI-8226 leukemia
  TGI: > 100 µM
RXF 393 renal
  TGI: > 100 µM
MOLT-4 leukemia
  TGI: > 100 µM
OVCAR-3 ovarian
  TGI: > 100 µM
TK-10 renal
  TGI: > 100 µM
A549 NSCLC
  TGI: > 100 µM

## Nc1nc(N)c2ncn(Cc3c(Cl)cccc3Cl)c2n1
UO-31 renal
  TGI: > 100 µM
COLO 205 colon
  TGI: > 100 µM
786-0 renal
  TGI: > 100 µM
RPMI-8226 leukemia
  TGI: > 100 µM
RXF 393 renal
  TGI: > 100 µM
MOLT-4 leukemia
  TGI: > 100 µM
OVCAR-3 ovarian
  TGI: > 100 µM
TK-10 renal
  TGI: > 100 µM
A549 NSCLC
  TGI: > 100 µM

## O=c1cc(-c2ccccc2)oc2cc(OCc3cn(Cc4ccc(F)cc4)nn3)cc(O)c12
COLO 205 colon
  GI50: > 100 µM
  TGI: > 100 µM
786-0 renal
  GI50: 9.26 µM
  TGI: 42.1 µM
RPMI-8226 leukemia
  GI50: > 100 µM
  TGI: > 100 µM
RXF 393 renal
  GI50: 3.58 µM
  TGI: 30.1 µM
MOLT-4 leukemia
  GI50: > 100 µM
  TGI: > 100 µM
TK-10 renal
  GI50: 10.4 µM
  TGI: 28.6 µM
A549 NSCLC
  GI50: 19.6 µM
  TGI: > 100 µM

## COC(=O)c1c(C(=O)OC)c(C(=O)OC)c(C(=O)OC)c1C(=O)OC
UO-31 renal
  TGI: > 100 µM
COLO 205 colon
  TGI: > 100 µM
786-0 renal
  TGI: > 100 µM
RPMI-8226 leukemia
  TGI: > 100 µM
RXF 393 renal
  TGI: > 100 µM
MOLT-4 leukemia
  TGI: > 100 µM
OVCAR-3 ovarian
  TGI: > 100 µM
TK-10 renal
  TGI: > 100 µM
A549 NSCLC
  TGI: > 100 µM

## CCC1N2CCCCC2[C@@H]2c3[nH]c4ccccc4c3CCN12 (stereo partly drawn)
UO-31 renal
  TGI: > 100 µM
COLO 205 colon
  TGI: > 100 µM
786-0 renal
  TGI: > 100 µM
RPMI-8226 leukemia
  TGI: > 100 µM
RXF 393 renal
  TGI: > 100 µM
MOLT-4 leukemia
  TGI: > 100 µM
OVCAR-3 ovarian
  TGI: > 100 µM
TK-10 renal
  TGI: > 100 µM
A549 NSCLC
  TGI: > 100 µM

## [O-]c1c(-c2ccccc2)[se]c(-c2ccccc2)[n+]1-c1ccccc1
UO-31 renal
  TGI: 9.84 µM
COLO 205 colon
  TGI: 31.3 µM
786-0 renal
  TGI: 22.5 µM
RPMI-8226 leukemia
  TGI: > 100 µM
RXF 393 renal
  TGI: 8.45 µM
MOLT-4 leukemia
  TGI: 92.9 µM
OVCAR-3 ovarian
  TGI: 21.9 µM
TK-10 renal
  TGI: 20.6 µM
A549 NSCLC
  TGI: 35.9 µM

## N#CC(C(=N/NC(N)=S)/C(=N\NC(N)=S)C(C#N)c1ccccc1)c1ccccc1 (stereo not drawn)
UO-31 renal
  TGI: > 10 µM
COLO 205 colon
  TGI: > 10 µM
786-0 renal
  TGI: > 10 µM
RPMI-8226 leukemia
  TGI: > 10 µM
RXF 393 renal
  TGI: > 10 µM
MOLT-4 leukemia
  TGI: > 10 µM
OVCAR-3 ovarian
  TGI: > 10 µM
TK-10 renal
  TGI: > 10 µM
A549 NSCLC
  TGI: > 10 µM

## CC(=O)c1ccc(NCn2nc(-c3ccccc3O)oc2=S)cc1
UO-31 renal
  GI50: > 100 µM
  TGI: > 100 µM
COLO 205 colon
  GI50: 43.4 µM
  TGI: > 100 µM
786-0 renal
  GI50: 74.1 µM
  TGI: > 100 µM
RXF 393 renal
  GI50: 24.6 µM
  TGI: 72.8 µM
MOLT-4 leukemia
  GI50: 0.88 µM
  TGI: > 100 µM
OVCAR-3 ovarian
  GI50: > 100 µM
  TGI: > 100 µM
TK-10 renal
  GI50: 67.1 µM
  TGI: > 100 µM
A549 NSCLC
  GI50: 37.8 µM
  TGI: > 100 µM

## CCC(=O)[O-].CCC(=O)[O-].N.N.N.N.[Co+3].[O-][Cl+3]([O-])([O-])[O-]
UO-31 renal
  GI50: > 100 µM
  TGI: > 100 µM
COLO 205 colon
  GI50: > 100 µM
  TGI: > 100 µM
786-0 renal
  GI50: > 100 µM
  TGI: > 100 µM
RPMI-8226 leukemia
  GI50: > 100 µM
  TGI: > 100 µM
MOLT-4 leukemia
  GI50: > 100 µM
  TGI: > 100 µM
OVCAR-3 ovarian
  GI50: > 100 µM
  TGI: > 100 µM
TK-10 renal
  GI50: > 100 µM
  TGI: > 100 µM
A549 NSCLC
  GI50: > 100 µM
  TGI: > 100 µM

## c1ccc(CN2CCC3(CC2)ONC2=NCCN23)cc1
UO-31 renal
  GI50: 22.3 µM
  TGI: > 100 µM
COLO 205 colon
  GI50: 50.4 µM
  TGI: > 100 µM
786-0 renal
  GI50: 42.6 µM
  TGI: > 100 µM
RXF 393 renal
  GI50: 88.1 µM
  TGI: > 100 µM
MOLT-4 leukemia
  GI50: 47.3 µM
  TGI: > 100 µM
OVCAR-3 ovarian
  GI50: 19.5 µM
  TGI: 87.3 µM
TK-10 renal
  GI50: 72 µM
  TGI: > 100 µM
A549 NSCLC
  GI50: 88.4 µM
  TGI: > 100 µM

## CC(C)c1cccc2sc(NC(=O)C(=O)CC(=O)c3ccc(F)cc3)nc12
UO-31 renal
  TGI: > 100 µM
COLO 205 colon
  TGI: > 100 µM
786-0 renal
  TGI: > 100 µM
RPMI-8226 leukemia
  TGI: > 100 µM
RXF 393 renal
  TGI: > 100 µM
OVCAR-3 ovarian
  TGI: > 100 µM
TK-10 renal
  TGI: > 100 µM
A549 NSCLC
  TGI: > 100 µM
